The target in one test is 5-HT2A receptor (Rattus norvegicus, UniProt P14842). The note with it: read-out: EC50 phosphoinositide turnover; standard pharmacological assay of 5-HT2A receptor activity; cited from earlier work.
For a further test, the system named is IL-6 gene expression. Kind of test: TNF-α induced IL-6 gene expression in primary rat aortic smooth muscle cells. The note with it: RASM passage 4, media with FBS, 24 h pretreatment, TNF-α 10 ng/ml, read-out: IC50 for proinflammatory gene expression inhibition for IL-6. Format: cell-based. The method, then:
RASM cells and treatment. Rat aortic smooth muscle (RASM) cells were isolated from adult 180 g male Sprague-Dawley rats and provided by the Cell and Molecular Core Facility in the Department of Pharmacology at LSUHSC-NO. Isolated RASM cells were grown in M-199 media containing 10% fetal bovine serum (Gibco), 100 units/mL penicillin, and 100 µg/mL streptomycin, and incubated at 37° C. in 5% CO2. Cells for all assays were used between passages 3 and 5. Prior to treatments, cells were grown in M-199 media with 10% fetal bovine serum (FBS) until 30-50% confluent. […]
RNA isolation and Quantitative Realtime-PCR. […]
The sequences of primers used are: 5-HT2AR (5-hydroxytryptamine 2A receptor): forward primer 5′-[…]-3′ (SEQ ID NO: 1), reverse primer, 5′[…]-3′ (SEQ ID NO: 2); ICAM-1 (intracellular adhesion molecule 1): forward primer, 5′-[…]-3′ (SEQ ID NO: 3, reverse primer, 5′-[…]-3′ (SEQ ID NO: 4); VCAM-1 (vascular adhesion molecule 1): forward primer, 5′-[…]-3′ (SEQ ID NO: 5), reverse primer, 5′-[…]-3′ (SEQ ID NO: 6); IL-6 (interleukin-6): forward primer, 5′-[…] […]-3′ (SEQ ID NO: 7), reverse primer, 5′-[…]-3′ (SEQ ID NO: 8); and cyclophillin B (control amplicon): forward primer, 5′-[…]-3′ (SEQ ID NO: 9), reverse primer, 5′-[…]-3′ (SEQ ID NO: 10). […] Quantitative determination of gene expression levels using a 2-step cycling protocol was performed on a MyIQ-5 Cycler (Bio-Rad, Hercules Calif.). […]

Test [1] relates to nuclear translocation of p65. The test can be described thus: Nuclear translocation of NF-κB subunit p65 in RASM cells. The test is classed as cell-based, rat. The note with it: 1 nM, 24 hours or one hour before or together with TNF-α 10 ng/ml. The method, then: Nuclear Translocation of p65. RASM cells were grown in M-199 medium+10% FBS until 50% confluent in 8 well chamber slides. Cells were treated with 1 nM (R)-DOI for various times as indicated, and TNF-α (10 ng/ml; tumor necrosis factor alpha) added. Thirty minutes after TNF-α treatment, cells were fixed and processed with rabbit anti p65 primary and Alexafluor 488-conjugated goat secondary antibodies as described in Zerfaoui et al. (2008) (Zerfaoui et al., 2008). Fluorescent signal was visualized on a Leica DMRA2 fluorescent microscope.
Both ICAM-1 and VCAM-1 gene transcription during inflammatory processes is regulated by the transcription factor NF-κB (Collins et al., 1995). During this process, NF-κB must be activated, and then translocated from the cytoplasm to the nucleus, where it promotes gene transcription. To investigate whether 5-HT2A receptor stimulated inhibition of NF-κB activation and translocation might be a possible mechanism for blockade of proinflammatory gene expression changes, a series of immunohistochemical experiments were conducted examining p65 translocation in RASM cells. TNF-α treatment for 30 minutes caused the expected dramatic shift in localization of the p65 subunit of NF-κB from the cytoplasm to the nucleus (FIG. 7A). […]

The text below walks through data of patent US9642819B2, “Low dosage serotonin 5-HT2A receptor agonist to suppress inflammation” (BOARD OF SUPERVISORS OF LOUISIANA STATE UNIVERSITY AND …, priority 2008, dated 2017).

Sequence of 5-HT2A receptor (P14842 whole entry): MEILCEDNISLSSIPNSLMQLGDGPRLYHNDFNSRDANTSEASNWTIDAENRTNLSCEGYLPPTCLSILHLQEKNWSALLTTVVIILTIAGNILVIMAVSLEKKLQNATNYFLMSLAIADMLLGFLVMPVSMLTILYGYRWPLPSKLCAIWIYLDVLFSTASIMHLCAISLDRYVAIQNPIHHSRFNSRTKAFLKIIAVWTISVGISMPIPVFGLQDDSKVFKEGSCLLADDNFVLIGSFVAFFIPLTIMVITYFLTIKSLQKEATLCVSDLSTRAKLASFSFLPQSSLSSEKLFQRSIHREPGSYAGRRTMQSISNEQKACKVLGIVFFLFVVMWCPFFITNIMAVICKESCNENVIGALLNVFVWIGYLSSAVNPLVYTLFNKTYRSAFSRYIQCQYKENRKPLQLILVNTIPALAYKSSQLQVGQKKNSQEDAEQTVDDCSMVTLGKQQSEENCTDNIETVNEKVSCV

Take `COc1cc(C[C@@H](C)N)c(OC)cc1I` [(R)-DOI, (R)-1-(2,5-dimethoxy-4-iodophenyl)-2-aminopropane]: the EC50 (as a rule, the midpoint of the concentration-response curve) at 5-HT2A receptor was 10 to 20 nM. For the same compound, the IC50 (usually the concentration that inhibits the measured activity by half) with IL-6 gene expression came to 0.0103 nM. Further, the “effect on TNF-α induced p65 nuclear translocation” value in test [1] is reported as “completely blocked”.
